Test results from US7244765B2, “Guanylhydrazone salts, compositions, processes of making and methods of using” (Cytokine Pharmasciences, Inc, priority 2004, dated 2007).
Where a name gives a salt, the structure may show the parent alone.

Experiment: Solubility test of Semapimod salts (sonication at room temperature, filtration, HPLC against a Semapimod-4 HCl/4 H2O standard)
Assay type: physicochemical
Conditions: for Solubility in H2O: sonicated at room temperature, Nylon syringe filter, HPLC vs standard from Semapimod-4 HCl/4 H2O
Procedure: The product isolated as Semapimod-2 HCl/4 H2O was added to ca. 2 mL of solvents (H2O, 5% Dextrose solution, PBS, and 0.9% NaCl solution), and was sonicated at room temperature until the solid suspended in the solution. The mixture was passed through a Nylon syringe filter, and then 0.5 mL of the filtrate was diluted with MeOH before injection into the HPLC. […] For reference purpose, the solubility of Semapimod-4 HCl/4 H2O was determined according to the previous procedure.
The Semapimod salts mentioned in the above table were subjected to solubility tests using the same procedure outlined above.

| Compound | Solubility in H2O | Solubility in 5% Dextrose (5% Dextrose solution, room temperature, HPLC vs standard) |
| --- | --- | --- |
| C/C(=N\NC(=N)N)c1cc(NC(=O)CCCCCCCCC(=O)Nc2cc(/C(C)=N/NC(=N)N)cc(/C(C)=N/NC(=N)N)c2)cc(/C(C)=N/NC(=N)N)c1 [Semapimod-4 HCl/4 H2O, reference compound] | 14.15 mg/mL | – |
| CC(=NNC(=N)N)c1cc(NC(=O)CCCCCCCCC(=O)Nc2cc(C(C)=NNC(=N)N)cc(C(C)=NNC(=N)N)c2)cc(C(C)=NNC(=N)N)c1.Cl.Cl.O.O.O.O [Semapimod-2 HCl/4 H2O] | ca. 9.54 mg/mL | 13.44 mg/mL |
